We go through 18 compounds from ChEMBL document CHEMBL5260811, “Drug development against tuberculosis: Impact of alkaloids” (Eur J Med Chem, 2017).

The test system of experiment [1] is Mycobacterium tuberculosis. The experiment in a line: Antimycobacterial activity against Mycobacterium tuberculosis harbouring katG gene. In kind it is functional.
In experiment [2] the test system is Mycobacterium tuberculosis. The experiment can be described thus: Antimycobacterial activity against Mycobacterium tuberculosis Rv3790 harbouring DprE1 gene. In kind it is functional.
Experiment [3] deals with Mycobacterium tuberculosis. The experiment in a line: Antimycobacterial activity against Mycobacterium tuberculosis harbouring fdxA gene. The class given is functional.
The test system of experiment [4] is Mycobacterium tuberculosis. The experiment in a line: Antimycobacterial activity against Mycobacterium tuberculosis Rv1302 harbouring wecA gene. The class given is functional.
Experiment [5] concerns Mycobacterium tuberculosis. The experiment in a line: Antimycobacterial activity against Mycobacterium tuberculosis Rv1302 harbouring rfe gene. In kind it is functional.
Experiment [6] concerns Mycobacterium tuberculosis. The experiment can be described thus: Antimycobacterial activity against Mycobacterium tuberculosis Rv2156c harbouring mraY gene. The class given is functional.
The subject of experiment [7] is Mycobacterium tuberculosis. The experiment can be described thus: Antimycobacterial activity against Mycobacterium tuberculosis harbouring rrs gene. The class given is functional.
In experiment [8] the test system is Mycobacterium tuberculosis. The experiment can be described thus: Antimycobacterial activity against rifampicin-resistant Mycobacterium tuberculosis. In kind it is functional.
The subject of experiment [9] is Mycobacterium tuberculosis. The experiment in a line: Antimycobacterial activity against Mycobacterium tuberculosis 000019 harbouring rrs gene. The class given is functional.
Experiment [10] relates to Mycobacterium tuberculosis. The experiment in a line: Antimycobacterial activity against Mycobacterium tuberculosis harbouring thyA gene. In kind it is functional.
Experiment [11] relates to Mycobacterium tuberculosis. The experiment in a line: Antimycobacterial activity against Mycobacterium tuberculosis Rv0503c harbouring cmaA2 gene. The class given is functional.
Experiment [12] concerns Mycobacterium tuberculosis. The experiment in a line: Antimycobacterial activity against Mycobacterium tuberculosis Rv2068c harbouring blaC gene. The class given is functional.
The test system of experiment [13] is Mycobacterium tuberculosis. The experiment can be described thus: Antimycobacterial activity against Mycobacterium tuberculosis Rv0050 harbouring ponA1 gene. In kind it is functional.
The test system of experiment [14] is Mycobacterium tuberculosis. The experiment in a line: Antimycobacterial activity against Mycobacterium tuberculosis Rv1305 harbouring atpE gene. The class given is functional.
The subject of experiment [15] is Mycobacterium tuberculosis. The experiment in a line: Antimycobacterial activity against drug-resistant Mycobacterium tuberculosis. The class given is functional.
In experiment [16] the test system is Mycobacterium tuberculosis. The experiment can be described thus: Antimycobacterial activity against multi-drug resistant Mycobacterium tuberculosis clinical isolates. In kind it is functional.
For experiment [17], the system named is Mycobacterium tuberculosis. The experiment can be described thus: Antimycobacterial activity against extensively drug resistant Mycobacterium tuberculosis clinical isolates. The class given is functional.
Experiment [18] relates to Mycobacterium tuberculosis. The experiment can be described thus: Antimycobacterial activity against Mycobacterium tuberculosis Rv2163c harbouring pbpB gene. In kind it is functional.
Experiment [19] has as its system Mycobacterium tuberculosis. The experiment can be described thus: Antimycobacterial activity against Mycobacterium tuberculosis Rv2163c harbouring ftsI gene. The class given is functional.
Experiment [20] concerns Mycobacterium tuberculosis. The experiment can be described thus: Antimycobacterial activity against Mycobacterium tuberculosis Rv0005 harbouring gyrB gene. The class given is functional.
In experiment [21] the test system is Mycobacterium tuberculosis. The experiment can be described thus: Antimycobacterial activity against Mycobacterium tuberculosis Rv0006 harbouring gyrA gene. The class given is functional.
Experiment [22] relates to Mycobacterium tuberculosis. The experiment can be described thus: Antimycobacterial activity against Mycobacterium tuberculosis Rv0706 harbouring rplV gene. In kind it is functional.
In experiment [23] the test system is Mycobacterium tuberculosis. The experiment can be described thus: Antimycobacterial activity against Mycobacterium tuberculosis harbouring embCAB gene. The class given is functional.
For experiment [24], the system named is Mycobacterium tuberculosis. The experiment can be described thus: microbe, parasite or virus in culture.

Converted amounts (≈) assume the structure as drawn. Starred links: 1 amine or outer side, 2 acyl side, 3 side chain; linkers in the order of their positions; H or OH if unused. Positions of bridges follow the written chain, without caps; N, C: chain ends. Non-standard residues stand in square brackets, D forms with d. Residues, ends and D or L forms follow the SMILES beside them. ξ: configuration not given here. *: point of attachment. X2 = N=C1NCCC([C@H](N[*:1])C(=O)[*:2])N1; ΔAla(Z-3-ureido) = NC(=O)N/C=C(\N)C(=O)O; ξβ3hOrn = NCCCC(N)CC(=O)*; Dap = NC[C@H](N)C(=O)O

For `CCOC(=O)NC(=O)c1ccsc1NC(=O)c1nc2ccccc2s1`, the MIC in experiment [1], in experiment [2] and in experiment [3] was 0.01 µg/mL (≈ 0.0266 µM) in each case.
Take `CCCCc1ccc(NC(=O)C2=CCN(C)[C@@H]([C@H](O[C@@H]3O[C@H](CN)[C@@H](O)[C@H]3O)[C@H]3O[C@@H](n4ccc(=O)[nH]c4=O)[C@H](O)[C@@H]3O)C(=O)N2C)cc1`: the MIC in experiment [4] and in [5] was 1.56 µg/mL (≈ 2.27 µM) in each case.
The compound `CCCCCCCCCC(=O)O[C@H]1[C@@H](OC)[C@H]([C@H](O[C@@H]2OC(C(=O)N[C@@H]3CCC[C@H](C)NC3=O)=C[C@@H](O)[C@H]2O)[C@H](N)O)O[C@@H]1n1ccc(=O)[nH]c1=O` displayed an MIC in experiment [6] of 0.12 µg/mL (≈ 0.162 µM).
For the compound `N=C1NCCC([C@@H]2NC(=O)/C(=C/NC(N)=O)NC(=O)[C@H](CNC(=O)CC(N)CCCN)NC(=O)[C@H](CO)NC(=O)[C@@H](N)CNC2=O)N1` (stereo partly drawn) (H-[Dap]S[Dap](ξβ3hOrn)[ΔAla(Z-3-ureido)][X2]; lactam 1-C), the MIC in [7] is 1.25 µg/mL (≈ 1.87 µM).
`COc1ccc2c3c(c4cc(OC)c(OC)cc4c2c1)CN1CCCC1C3` (stereo not drawn) [(+/-)-DEOXYTYLOPHORININE] registered an MIC in [8] of 6.25 µg/mL (≈ 17.2 µM).
Compound `NCC[C@H](O)C(=O)N[C@@H]1C[C@H](N)[C@@H](O[C@H]2O[C@H](CN)[C@@H](O)[C@H](O)[C@H]2O)[C@H](O)[C@H]1O[C@H]1O[C@H](CO)[C@@H](O)[C@H](N)[C@H]1O` [AMIKACIN] had an MIC in experiment [9] of 0.12 µg/mL (≈ 0.205 µM).
Compound `Nc1ccc(C(=O)O)c(O)c1` [AMINOSALICYLIC ACID] had an MIC in [10] of 1 µg/mL (≈ 6.53 µM).
In [11], `CC(=O)Nc1ccc(/C=N/NC(N)=S)cc1` [AMITHIOZONE] returned an MIC of 0.1 µg/mL (≈ 0.423 µM).
As for `CC1(C)S[C@@H]2[C@H](NC(=O)[C@H](N)c3ccc(O)cc3)C(=O)N2[C@H]1C(=O)O` [AMOXICILLIN], the MIC in experiment [12] and in [13] was 10 µg/mL in each case.
`COc1nc2ccc(Br)cc2cc1[C@@H](c1ccccc1)[C@@](O)(CCN(C)C)c1cccc2ccccc12` [BEDAQUILINE]: the MIC stood at 0.063 µg/mL (≈ 0.113 µM) in experiment [14] and 60 µg/mL (≈ 108 µM) in experiment [15].
On to `C[C@H]1COC2(CCN(c3nc(=O)c4cc(C(F)(F)F)cc([N+](=O)[O-])c4s3)CC2)O1` [BTZ-043], for which the MIC in experiment [16] was 0.0001 µg/mL (≈ 0.000232 µM); in experiment [17], 0.001 µg/mL (≈ 0.00232 µM); in experiment [2] it was 0.001 µg/mL (≈ 0.00232 µM).
For the compound `CC1(C)C[C@@H]1C(=O)N/C(=C\CCCCSC[C@H](N)C(=O)O)C(=O)O` [CILASTATIN], the MIC was 0.16 µg/mL in [18] and 0.16 µg/mL (≈ 0.446 µM) in experiment [19].
Take `O=C(O)c1cn(C2CC2)c2cc(N3CCNCC3)c(F)cc2c1=O` [CIPROFLOXACIN]: the MIC in experiment [20] and in [21] was 0.125 µg/mL (≈ 0.377 µM) each time.
Regarding `CC[C@H]1OC(=O)[C@H](C)[C@@H](O[C@H]2C[C@@](C)(OC)[C@@H](O)[C@H](C)O2)[C@H](C)[C@@H](O[C@@H]2O[C@H](C)C[C@H](N(C)C)[C@H]2O)[C@](C)(OC)C[C@@H](C)C(=O)[C@H](C)[C@@H](O)[C@]1(C)O` [CLARITHROMYCIN], in experiment [22], the MIC is 1 µg/mL (≈ 1.34 µM).
Take `O=C(O)[C@H]1/C(=C/CO)O[C@@H]2CC(=O)N21` [CLAVULANIC ACID]: the MIC in experiment [18], in experiment [12] and in experiment [13] was 0.23 µM throughout.
As to `CC[C@@H](CO)NCCN[C@@H](CC)CO` [ETHAMBUTOL], the MIC in experiment [23] was 1 µg/mL (≈ 4.89 µM).
In experiment [24], `CCc1cc(C(N)=S)ccn1` [ETHIONAMIDE] gave an MIC of 0.6 µg/mL (≈ 3.61 µM).
As to `COc1c(N2CCNC(C)C2)c(F)cc2c(=O)c(C(=O)O)cn(C3CC3)c12` (stereo not given) [GATIFLOXACIN], the MIC in experiment [20] and in experiment [21] was 1 µg/mL (≈ 2.66 µM) each time.
